Values after ≈ are worked out from the molar mass of the structure shown.
Columns and labels:
[1] = Solubility of the compound by high throughput solubility assay; assay type: physicochemical
[2] = test system: Staphylococcus aureus; assay: Antibacterial activity against methicillin sensitive Staphylococcus aureus ARC516 by broth microdilution method; assay type: functional
[3] = Inhibition of recombinant Escherichia coli DNA gyrase AB expressed in Escherichia coli BL21 (DE3) using relaxed pJT519 DNA as substrate preincubated for 20 mins followed by 5'-BODIPY-TMR-TTCTTCTTCT addition and measured after 1 hr by fluorescence anisotropy
[4] = test system: Staphylococcus aureus; assay: Antibacterial activity against methicillin sensitive Staphylococcus aureus ARC516 in presence of human serum by broth microdilution method; assay type: functional
[5] = test system: Haemophilus influenzae; assay: Antibacterial activity against Haemophilus influenzae ARC737 by broth microdilution method; assay type: functional
[6] = Protein binding in human plasma assessed as unbound fraction at 10 uM measured after 16 hrs by LC-MS/MS based equilibrium dialysis method; assay type: ADME, cell-free
[7] = n-octanol/phosphate buffer partition coefficient, log D of the compound at pH 7.4 measured after 1 hr by UV-LC/MS based shake flask method; assay type: physicochemical
[8] = test system: Streptococcus pneumoniae; assay: Antibacterial activity against Streptococcus pneumoniae ARC548 by broth microdilution method; assay type: functional
[9] = test system: Streptococcus pyogenes; assay: Antibacterial activity against Streptococcus pyogenes ARC838 by broth microdilution method; assay type: functional
[10] = test system: Staphylococcus aureus; assay: Antibacterial activity against methicillin/quinolone-resistant Staphylococcus aureus ARC517 by broth microdilution method; assay type: functional
[11] = test system: Escherichia coli; assay: Antibacterial activity against Escherichia coli ARC523 by broth microdilution method; assay type: functional
[12] = Ratio of MIC for antibacterial activity against methicillin/quinolone-resistant Staphylococcus aureus ARC517 to protein binding in human plasma assessed as unbound fraction
[13] = test system: L5178Y; assay: Genotoxicity in mouse L5178Y cells using DAPI staining by microscopy based micronucleation assay; assay type: toxicity, cell-based

Row | SMILES | solubility [1] [µM] | MIC [2] [µM] | IC50 [3] [nM] | MIC [4] [µM] | MIC [5] [µM] | fraction unbound at 16 h, 10 µM [6] | logD at 1 h [7] | MIC [8] [µM] | MIC [9] [µM] | MIC [10] [µM] | MIC [11] [µM] | Ratio [12] | NOAEL [13] [µM]
1 | C[C@@H]1CN2c3c(cc4c(-n5ncnc5[C@H](C)O)noc4c3F)CC3(C(=O)NC(=O)NC3=O)[C@H]2[C@H](C)O1 | 960 (≈ 479 µg/mL) | 0.78 (≈ 0.39 µg/mL) | 430 | 1.6 | 1.6 (≈ 0.799 µg/mL) | 0.21 | 1.3 | 1.6 (≈ 0.799 µg/mL) | 1.6 (≈ 0.799 µg/mL) | 1.6 (≈ 0.799 µg/mL) | 79 (≈ 39.5 µg/mL) |  | 
2 | C[C@@H]1CN2c3c(cc4c(-n5ncnc5NCCO)noc4c3F)CC3(C(=O)NC(=O)NC3=O)[C@H]2[C@H](C)O1 | 625 (≈ 322 µg/mL) | 0.39 (≈ 0.201 µg/mL) | 270 | < 0.2 | 0.39 (≈ 0.201 µg/mL) | 0.14 | 1.6 | 0.39 (≈ 0.201 µg/mL) | 0.39 (≈ 0.201 µg/mL) | 0.78 (≈ 0.401 µg/mL) | 25 (≈ 12.9 µg/mL) |  | 
3 | C[C@@H]1CN2c3c(cc4c(-n5nccn5)noc4c3F)CC3(C(=O)NC(=O)NC3=O)[C@H]2[C@H](C)O1 | 810 (≈ 369 µg/mL) | < 0.2 | 240 | 1.56 |  | 0.031 | 1.95 |  |  | 0.78 (≈ 0.355 µg/mL) | 12.5 (≈ 5.69 µg/mL) | 25 | 
4 | C[C@@H]1CN2c3c(cc4c(-n5ncnc5NC[C@@H](C)O)noc4c3F)CC3(C(=O)NC(=O)NC3=O)[C@H]2[C@H](C)O1 | > 1000 | 0.098 (≈ 0.0518 µg/mL) | 160 | < 0.2 | 0.39 (≈ 0.206 µg/mL) | 0.13 | 1.9 | < 0.2 | < 0.2 | 0.63 (≈ 0.333 µg/mL) | 25 (≈ 13.2 µg/mL) |  | 12
5 | CNS(=O)(=O)c1cnn(-c2noc3c(F)c4c(cc23)CC2(C(=O)NC(=O)NC2=O)[C@H]2[C@H](C)O[C@H](C)CN42)c1 | 21 (≈ 11.5 µg/mL) | 0.39 (≈ 0.214 µg/mL) | 610 | 1.6 |  | 0.068 | 2.2 |  |  | 1.56 (≈ 0.854 µg/mL) | 50 (≈ 27.4 µg/mL) | 23 | 
6 | CO/N=C1\CN(c2nc3c(cc2F)c(=O)c(C(=O)O)cn3C2CC2)CC1CN (stereo not drawn) [GEMIFLOXACIN] |  |  |  |  |  |  |  |  |  |  |  |  | 3
7 | Cc1ncnn1-c1noc2c(F)c3c(cc12)CC1(C(=O)NC(=O)NC1=O)[C@H]1[C@H](C)O[C@H](C)CN31 | 22 (≈ 10.3 µg/mL) | 0.2 (≈ 0.0939 µg/mL) | 340 | 0.39 | 1.6 (≈ 0.751 µg/mL) | 0.098 | 2.1 | 0.78 (≈ 0.366 µg/mL) | 0.55 (≈ 0.258 µg/mL) | 0.39 (≈ 0.183 µg/mL) | 50 (≈ 23.5 µg/mL) |  | 
8 | C[C@@H]1CN2c3c(cc4c(-n5ncnc5C#N)noc4c3F)CC3(C(=O)NC(=O)NC3=O)[C@H]2[C@H](C)O1 | 560 (≈ 269 µg/mL) | < 0.2 | 320 | 0.39 | 0.39 (≈ 0.187 µg/mL) | 0.076 | 2 | 0.39 (≈ 0.187 µg/mL) | 0.39 (≈ 0.187 µg/mL) | < 0.2 | 6.2 (≈ 2.98 µg/mL) |  | 
9 | C[C@@H]1CN2c3c(cc4c(-n5ncnc5N(C)C)noc4c3F)CC3(C(=O)NC(=O)NC3=O)[C@H]2[C@H](C)O1 | > 1000 | 0.39 (≈ 0.194 µg/mL) | 670 | 1.6 | 1.6 (≈ 0.798 µg/mL) | 0.13 | 1.7 | 1.6 (≈ 0.798 µg/mL) | 0.78 (≈ 0.389 µg/mL) | 0.78 (≈ 0.389 µg/mL) | 100 (≈ 49.8 µg/mL) |  | 
10 | C[C@@H]1CN2c3c(cc4c(-n5cc(C#N)cn5)noc4c3F)CC3(C(=O)NC(=O)NC3=O)[C@H]2[C@H](C)O1 | 10 (≈ 4.79 µg/mL) | < 0.2 | 400 | 0.39 |  | 0.044 | 2.4 |  |  | 0.2 (≈ 0.0959 µg/mL) | 25 (≈ 12 µg/mL) | 4.5 | 
11 | C[C@@H]1CN2c3c(cc4c(-n5ncnc5NCC(=O)N5CC[C@H](N(C)C)C5)noc4c3F)CC3(C(=O)NC(=O)NC3=O)[C@H]2[C@H](C)O1 | 880 (≈ 550 µg/mL) | 0.2 (≈ 0.125 µg/mL) | 180 | 0.2 | 1.6 (≈ 0.999 µg/mL) | 0.26 | 1.7 | < 0.2 | 0.39 (≈ 0.244 µg/mL) | 2.2 (≈ 1.37 µg/mL) | 50 (≈ 31.2 µg/mL) |  | 12
12 | C[C@@H]1CN2c3c(cc4c(-n5ncnc5NCC(=O)N5CC[C@@H](N(C)C)C5)noc4c3F)CC3(C(=O)NC(=O)NC3=O)[C@H]2[C@H](C)O1 | 690 (≈ 431 µg/mL) | 0.2 (≈ 0.125 µg/mL) | 80 | 0.2 | 1.6 (≈ 0.999 µg/mL) | 0.26 | 1.3 | < 0.2 | 0.39 (≈ 0.244 µg/mL) | 1.6 (≈ 0.999 µg/mL) | 25 (≈ 15.6 µg/mL) |  | 
